{
  "source": "patent US6902741B1",
  "about": "“Laminates containing an active substance transdermal system” (Jenapharm GmbH & Co. KG, priority 1999, dated 2005)",
  "format": "physicochemical",
  "description": "In this manner, by use of solid polymer inclusions, optimum active substance loadings can be attained in different polymers. The active substance concentrations in the polymer inclusions can be stabilized at a very high level so that only minimum amounts of additional solvent are needed. In cases where the solubility of the drug in the adhesive is the primary factor limiting skin permeation, the method of preparation described under B) must be chosen.\nWhen such solid active substance inclusions are introduced into adhesive matrix solutions in dissolved form, the high solubility of the inclusion polymer in the matrix solvent used, for example ethyl acetate, ethanol etc, is important. Rapid dissolution of the amorphous active substance is attained to a level far above its saturation solubility in the pure solvent. For example, at room temperature ethyl acetate dissolves only about 3 wt. % of a gestagenic steroid. By use of a corresponding solid active substance solution, the solubility of the steroid in the solution of ethyl acetate and nonadhesive polymer was increased to nearly 15 wt. % and kept stable. It should be kept in mind in this respect that, based on the volatile solvent ethyl acetate which is to be driven off from the adhesive matrix that is to be dried, the solubility was increased to more than 30 wt. %. […]",
  "data": [
    {"smiles": "C#C[C@]1(O)C=C[C@H]2[C@@H]3CCC4=CC(=O)CC[C@@H]4[C@H]3CC[C@@]21CC", "note": "[gestodene]", "values": [
      {"measurement": "solubility in ethyl acetate", "value": 3, "unit": "%"}
    ]}
  ]
}
